# According to PMC6563099, “Novel Thienopyrimidine Derivative, RP-010, Induces β-Catenin Fragmentation and Is Efficacious against Prostate Cancer Cells” (Cancers, 2019):
# Key:
# Format in all cases: cell-based
# PC-3 = experiment: MTT cytotoxicity assay, PC-3 prostate cancer cells; conditions: Homo sapiens, PC-3, MTT assay; means ± SDs of three independent experiments; read-out: IC50 ± SD, Prostate Cancer Cells, PC-3
# Experimental: (§1) All the cells were cultured as adherent monolayers in culture flasks, and were used to determine the anti-cancer efficacy of RP-010. DMEM supplemented with 4.5 g of glucose, 10% fetal bovine serum (FBS) and 1% penicillin/streptomycin, was used to augment cell growth. Finally, the cells were incubated and grown in a humidified incubator containing 5% CO2 at 37 °C [50]. […] Cells were obtained from frozen stocks and cell passaging (up to P4) was performed at 80% cell confluency, using PBS and trypsin + 2.2-mM EDTA.
# (§2) MTT assays were used to determine the cytotoxicity of the RP compounds, to PC cell lines, as previously described.
# DU145 = experiment: MTT cytotoxicity assay, DU145 prostate cancer cells; conditions: Homo sapiens, DU-145, MTT assay; means ± SDs of three independent experiments; read-out: IC50 ± SD, Prostate Cancer Cells, DU145
# Experimental: as §1, §2
# CRL-1459 = experiment: MTT cytotoxicity assay, CRL-1459 normal colon epithelial cells; conditions: Homo sapiens, normal colon epithelial cell line, means ± SDs of three independent experiments, read-out: IC50 ± SD, Non-Prostate Cells, CRL-1459
# Experimental: as §1, §2
# CHO = experiment: MTT cytotoxicity assay, CHO cells; conditions: Cricetulus griseus, Chinese hamster ovarian cell line, means ± SDs of three independent experiments, read-out: IC50 ± SD, Non-Prostate Cells, CHO
# Experimental: as §1, §2
SMILES,IC50 (PC-3) [µM],IC50 (DU145) [µM],IC50 (CRL-1459) [µM],IC50 (CHO) [µM]
O=c1[nH]c(-c2ccccc2)nc2sc3c(c12)CCCC3 [RP1],> 100,> 100,> 100,> 100
O=c1[nH]c(-c2ccc(F)cc2)nc2sc3c(c12)CCCC3 [RP2],> 100,> 100,> 100,> 100
O=c1[nH]c(-c2ccc(Cl)cc2)nc2sc3c(c12)CCCC3 [RP3],> 100,> 100,> 100,> 100
O=c1[nH]c(-c2ccc(Cl)cc2Cl)nc2sc3c(c12)CCCC3 [RP4],73.4 ± 3.1,> 100,> 100,> 100
O=c1[nH]c(-c2cccc([N+](=O)[O-])c2)nc2sc3c(c12)CCCC3 [RP5],> 100,> 100,> 100,> 100
O=c1[nH]c(-c2ccc([N+](=O)[O-])cc2)nc2sc3c(c12)CCCC3 [RP6],> 100,> 100,> 100,> 100
Cc1ccc(-c2nc3sc4c(c3c(=O)[nH]2)CCCC4)cc1 [RP7],> 100,> 100,> 100,> 100
N#Cc1ccc(-c2nc3sc4c(c3c(=O)[nH]2)CCCC4)cc1 [RP8],6.4 ± 0.5,> 100,> 100,> 100
COc1cccc(-c2nc3sc4c(c3c(=O)[nH]2)CCCC4)c1 [RP9],2.8 ± 1.1,> 100,> 100,> 100
COc1ccc(-c2nc3sc4c(c3c(=O)[nH]2)CCCC4)cc1OC [RP11],6.6 ± 0.7,2.7 ± 0.5,> 100,> 100
COc1cc(OC)cc(-c2nc3sc4c(c3c(=O)[nH]2)CCCC4)c1 [RP12],6.9 ± 1,> 100,> 100,> 100
COc1cccc(-c2nc3sc4c(c3c(=O)[nH]2)CCCC4)c1O [RP13],> 100,> 100,> 100,> 100
